The subject of assay [1] is NMDA receptor. The assay can be described thus: Survival of CBE-treated mice given NMDA receptor agonists or antagonists. The class given is in vivo, mouse. An excerpt: (§1) Mice—Pure inbred mouse strains were obtained from the Jackson laboratories (USA), Harlan UK and Harlan Israel. Specifically, BTBR T^+ Itpr3^tf/J C3H/HeJ, DBA/2J, MRL/MpJ, WSB/EiJ, MOLF/Ei, PWD/PhJ, KK/HiJ, BPL/1J, I/LnJ, BPN/3J, and LP/J were obtained from Jackson; A/J, AKR/J, NZW/LacJ, 129S1/SvImJ were obtained from Harlan laboratories in the UK; and C57BL/6JOlaHsd, BALB/cJ and FVB/NJ were obtained from the Harlan laboratories in Israel. Gba^flox/flox; nestin-Cre mice, a mouse model of GD were generated as described in Vitner et al. Nature Medicine (2014) 20: 204-208; and Enquist, I. B. et al. Proc. Natl. Acad. Sci. USA (2007) 104: 17483-17488. These mice recapitulate many features of human nGD, although their Gba1 deficiency is restricted to neural and macroglial lineages. Mice were maintained under specific pathogen-free conditions and handled according to protocols approved by the Weizmann Institute Animal Care Committee according to international guidelines.
CBE injections—Conduritol-β-epoxide (CBE) was obtained from Calbiochem Millipore (Darmstadt, Germany). CBE at a dose of 25 mg or 50 mg per kg body weight per day or PBS (control) were administered i.p. to mice daily starting from postnatal day 8 (P8) of age.
(§2) Treatment with NMDA receptor agonists and antagonists—All agonists and antagonists were administered daily from P8. D-cycloserine (Sigma) was administered daily at a dose of 200 mg/kg/day. MK-801 (Sigma) was administered daily at a dose of 0.3 mg/Kg/day. Memantine (Sigma) was administered daily at a dose of 3 or 30 mg/Kg/day. Ifenprodil (Sigma) was administered daily at a dose of 9 mg/Kg/day.

The next assay has as its target T1, GBA1 (Mus musculus, UniProt P17439).
T1 construct: from tissue; host or cells: mouse brain (frozen half-brain homogenate) of inbred strains treated in vivo with PBS, CBE or CBE plus memantine
T1 sequence (P17439 20-515): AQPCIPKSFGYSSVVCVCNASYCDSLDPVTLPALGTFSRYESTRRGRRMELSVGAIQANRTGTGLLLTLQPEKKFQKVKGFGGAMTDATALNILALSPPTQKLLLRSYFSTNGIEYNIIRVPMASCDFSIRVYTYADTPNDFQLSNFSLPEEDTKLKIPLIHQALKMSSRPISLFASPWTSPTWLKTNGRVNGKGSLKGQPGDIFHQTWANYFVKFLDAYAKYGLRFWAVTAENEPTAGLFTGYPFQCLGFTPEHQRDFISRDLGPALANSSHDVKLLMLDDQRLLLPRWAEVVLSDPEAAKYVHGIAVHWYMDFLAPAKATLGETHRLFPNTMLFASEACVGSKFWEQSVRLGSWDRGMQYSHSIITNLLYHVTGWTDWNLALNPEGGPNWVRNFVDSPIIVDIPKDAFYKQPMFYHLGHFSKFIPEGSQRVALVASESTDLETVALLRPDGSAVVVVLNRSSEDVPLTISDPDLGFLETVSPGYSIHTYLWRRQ
Description: GBA1 activity assay in brain homogenates of treated mice. The class given is in vivo. As to conditions: A/J mice, CBE plus memantine. The protocol: GBA1 activity assay—GBA1 activity was performed as previously described (Farfel-Becker et al. Hum Mol Genet. 2014; 23(4):843-54). Briefly, frozen half-brain samples were sonicated in Mcllvaine's buffer (0.1 M citric acid, pH 4.2, 0.2 M Na2HPO4, 29:21, vol:vol). Tissue homogenates containing 50 μg of protein were incubated at 37° C. with 8 μM C6-NBD-GlcCer (Avanti Polar Lipids, Alabaster, Ala., USA) in a final volume of 25 μl Mcllvaine's buffer for 30 minutes. Lipids were extracted and the lower phase separated by thin layer chromatography using chloroform:methanol:9.8 mM CaCl2 (60:35:8, vol:vol:vol) as the developing solvent. C6-NBD-ceramide was identified with an authentic standard using a Typhoon 9410 variable mode imager and bands were quantified by Image-QuantTL (GE Healthcare, Chalfont St Giles, UK).
To eliminate the possibility that the phenotypic differences observed in the different mouse strains were caused by differential CBE metabolism in the brain, GBA1 enzymatic activity in mice treated for 10 days with CBE or PBS (control) was measured. […] Overall, the remaining GBA1 activity was 5-10% of the controls (FIG. 3A). There was no correlation between GBA1 activity in the brain and life spans neither in the PBS(R^2=0.126, data not shown) nor CBE conditions (R^2=0.0581, FIG. 3B). In addition, no correlation was found between inhibition of GBA1 activity and life span when evaluated according to strains (R^2=0.0085, data not shown).

For assay [2], the system named is motor coordination of CBE-treated mice. The assay can be described thus: Locomotor testing by the hanging wire test. The format is in vivo, mouse. An excerpt: Locomotor testing—Locomotor coordination was weekly evaluated in the treated strains by the hanging wire test, a validated test for LSD mouse models (Alvarez et al. 2008). Briefly, the mouse was placed with forepaws at a center of a horizontal bar (3 mm diameter; 35 mm long).
To further characterize the effect of CBE treatment on the different strains, motor behavior was followed weekly using the hanging wire test, starting at postnatal day 21 for a period of 2 months. The hanging wire test evaluates coordination and locomotor function, wherein a high score means better coordination. […] Of note, strains PWD/PhJ and WSB/EiJ were excluded in the motor behavior analysis due to their wild behavior.

Assay [3] has as its system NMDA receptor. The assay can be described thus: Survival of Gba flox/flox; nestin-Cre mice (genetic nGD model) treated with memantine. The class given is in vivo, mouse. To be noted: memantine 3 or 30 mg/kg day from P8 vs PBS.
From the text: as §1, §2

Results on 4 compounds are retold here after patent US20170273917A1, “NMDA RECEPTOR ANTAGONISTS FOR TREATING GAUCHER DISEASE” (Yeda Research and Development Co. Ltd., priority 2014, published 2017).

For `N[C@@H]1CONC1=O` [D-cycloserine], the life spans entry in the assay with NMDA receptor [1] (D-cycloserine 200 mg/kg/day, CBE-treated (25 mg/kg day) long living strains BALB/cJ, FVB/NJ, 129S1/SvImJ, BTBR T+ Itpr3tf/J, daily from P8) is recorded as “reduced the life spans”.
Regarding `CC(C(O)c1ccc(O)cc1)N1CCC(Cc2ccccc2)CC1.O=C(O)C(O)C(O)C(=O)O` (stereo not drawn) [Ifenprodil, α-(4-Hydroxyphenyl)-β-methyl-4-benzyl-1-piperidineethanol (+)-tartrate salt], in the assay with NMDA receptor [1] (Ifenprodil 9 mg/Kg/day, CBE (25 mg/kg day)-treated A/J mice, daily from P8), the life spans entry was “showed increments in the life spans”.
On to `C[C@]12N[C@H](Cc3ccccc31)c1ccccc12` [MK-801], for which, in the assay on NMDA receptor [1] (MK-801 0.3 mg/Kg/day, CBE-treated (25 mg/Kg/day) C3H mice, daily from P8), the survival entry is “extended the survival”.
Turning to `CC12CC3CC(C)(C1)CC(N)(C3)C2.Cl` [Memantine, 3,5-Dimethyl-1-adamantanamine hydrochloride], the “interference with GBA1 inhibition in the brain” value on GBA1 (brains harvested P18 or P70) is given as “did not interfere with GBA1 inhibition”. Besides, on GBA1 (postnatal day 70 (P70)), the “cerebral GBA1 activity” value is “almost undetectable”. Moreover, in assay [2] (A/J mice, CBE plus memantine), the “progression of the motor dysfunction induced by CBE (hanging wire test)” value is given as “delayed the progression of the motor dysfunction”. In addition, the “hanging wire test score” value in assay [2] (memantine-treated CBE mice at postnatal day 49) is recorded as “the same score as CBE-treated mice at P21”. Besides, the life span entry with NMDA receptor [1] (memantine 3 mg/kg day plus CBE 25 mg/kg day, A/J, C3H/HeJ, DBA/2J and C57BL6/JolaHsd mice, daily from P8) is “significantly extended the life span”. Also, the survival result is “significantly extended survival” in the assay on NMDA receptor [1] (memantine 30 mg/kg/day, CBE 50 mg/kg/day, AJ mice, daily from P8) and “significantly extended survival” in the assay with NMDA receptor [3]. Besides, the “increase of life span compared with MK-801” value in the assay on NMDA receptor [1] (neuropathic GD (CBE-treated) mice) is “to a greater extent than MK-801”.
